The compounds below were run against T1, β-glucocerebrosidase (Homo sapiens, UniProt P04062, L483P) (assay: Enhancement of β-glucocerebrosidase activity measured in Gaucher disease fibroblasts (4-MU-β-D-glucopyranoside substrate, intact cells)). Settings: GBA fibroblasts bearing L444P (GM08760A, homozygous p.L444P); compound at concentrations between 6 and 50 μM; 4 days incubation.
T1 construct: host or cells: human Gaucher disease patient fibroblasts GM08760A
T1 sequence (P04062 40-536 L483P): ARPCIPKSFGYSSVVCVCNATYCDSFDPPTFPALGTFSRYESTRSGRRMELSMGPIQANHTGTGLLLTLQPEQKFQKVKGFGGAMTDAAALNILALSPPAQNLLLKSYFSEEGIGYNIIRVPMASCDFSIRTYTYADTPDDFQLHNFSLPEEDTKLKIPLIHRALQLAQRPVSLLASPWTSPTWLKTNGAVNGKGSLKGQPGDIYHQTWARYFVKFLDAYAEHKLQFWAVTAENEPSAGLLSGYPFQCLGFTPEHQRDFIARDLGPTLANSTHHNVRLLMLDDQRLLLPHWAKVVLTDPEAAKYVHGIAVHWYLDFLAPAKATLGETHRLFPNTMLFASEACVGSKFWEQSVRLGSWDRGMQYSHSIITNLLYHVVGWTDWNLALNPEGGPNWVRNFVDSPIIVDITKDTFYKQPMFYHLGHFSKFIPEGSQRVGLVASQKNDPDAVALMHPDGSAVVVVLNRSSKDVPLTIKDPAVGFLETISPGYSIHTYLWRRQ
Format: cell-based
Parameters: key: Increase in comparison with non-treated of >2.0 fold is shown as A; Increase in comparison with non-treated of >1.7-2.0 fold is shown as B; Increase in comparison with non-treated of 1.2-1.7 fold is shown as C; D means that no increase compared with non-treated cells was detected in this method
Protocol: Human fibroblasts from a patient with Gaucher disease homozygous for p.L444P mutation (GM08760A) were purchased from Coriell Institute for Medical Research (Camden, NJ, USA).
Fibroblasts were seeded at 5×10^3 cells per well in 96-well cell culture plates (Corning, NY, USA) in Dulbecco's Modified Eagle's Media (DMEM) supplemented with 10% of fetal bovine serum (FBS), 1% penicillin/streptomycin (P/S) (Thermo Fisher Scientific, Waltham, MA, USA) and grown at 37° C., 5% CO2 overnight for cell attachment. Subsequently, cells were incubated in the absence or presence of the compounds at the desired concentration for 4 days. After incubation, cells were washed twice with phosphate-buffered saline (PBS) and enzyme activity assay was performed.
β-glucocerebrosidase activity in intact cultured cells was measured by using 4-methylumbelliferyl-β-D-glucopyranoside substrate (Apollo Scientific, UK). Briefly, cells were incubated with 4-MU-β-D-glucopyranoside in 0.1 M acetate buffer pH=4 at 37° C. for 1 hour. The reaction was stopped by adding 200 μL at 100 mM glycine-NaOH pH=10.7. The liberated 4-MU was measured on a GloMax Discover plate reader (Promega, Madison, WI, USA) with and excitation at 340 nm and emission at 460 nm. Enzyme activities were expressed in treated cells as X-fold increase in comparison with non-treated cells (X=1 represents no enhancement).
The capacity of the compounds of the disclosure to produce an increase in enzyme activity in GBA fibroblasts bearing L444P at concentrations between 6 and 50 μM is denoted as follows: • Increase in comparison with non-treated of >2.0 fold is shown as A • Increase in comparison with non-treated of >1.7-2.0 fold is shown as B • Increase in comparison with non-treated of 1.2-1.7 fold is shown as C • D means that no increase compared with non-treated cells was detected in this method • ND means “not determined”
With `Nc1nc(Nc2ccccc2O)cc(C(=O)N2Cc3ccccc3C2)n1` [Example 86, (2-Amino-6-((2-hydroxyphenyl)amino)pyrimidin-4-yl)(isoindolin-2-yl)methanone] the “Range: increase in enzyme activity in comparison with non-treated cells (Enzyme activity assay for compounds of Examples 33-141)” value was “C (Increase in comparison with non-treated of 1.2-1.7 fold is shown as C)”.
For `Nc1cc(Nc2cccc(F)c2)nc(C(=O)N2Cc3ccccc3C2)c1` [Example 116, (6-(3-Fluorophenylamino)-4-aminopyridin-2-yl)(isoindolin-2-yl)methanone], the “Range: increase in enzyme activity in comparison with non-treated cells (Enzyme activity assay for compounds of Examples 33-141)” value was “C (Increase in comparison with non-treated of 1.2-1.7 fold is shown as C)”.
`CN(C(=O)c1cc(N)nc(Nc2ccccc2O)c1)C1Cc2ccccc2C1` [Example 44, 2-Amino-N-(2,3-dihydro-1H-inden-2-yl)-6-((2-hydroxyphenyl)amino)-N-methyl-isonicotinamide] was tested, and the “Range: increase in enzyme activity in comparison with non-treated cells (Enzyme activity assay for compounds of Examples 33-141)” value was “C (Increase in comparison with non-treated of 1.2-1.7 fold is shown as C)”.
For `CN(C(=O)c1cc(N)nc(Nc2ccccc2O)c1)C1CCc2ccccc2C1` (centres unmarked) [Example 42, 2-Amino-6-((2-hydroxyphenyl)amino)-N-methyl-N-(1,2,3,4-tetrahydronaphthalen-2-yl)isonicotinamide], the “Range: increase in enzyme activity in comparison with non-treated cells (Enzyme activity assay for compounds of Examples 33-141)” value was “C (Increase in comparison with non-treated of 1.2-1.7 fold is shown as C)”.
In the case of `Nc1cc(C(=O)N2CCN(c3ccccc3)CC2)nc(Nc2ccccc2O)n1` [Example 1, (6-Amino-2-((2-hydroxyphenyl)amino)pyrimidin-4-yl)(4-phenylpiperazin-1-yl)methanone], the “Range: increase in enzyme activity in comparison with non-treated cells (Enzyme activity assay for exemplified compounds)” value is reported as “C (Increase in comparison with non-treated of 1.2-1.7 fold is shown as C)”.
For `N#Cc1ccccc1Nc1cc(N)cc(C(=O)NC2Cc3ccccc3C2)n1` [Example 99, 4-Amino-6-((2-cyanophenyl)amino)-N-(2,3-dihydro-1H-inden-2-yl)picolinamide], the “Range: increase in enzyme activity in comparison with non-treated cells (Enzyme activity assay for compounds of Examples 33-141)” value was “D”.
In the case of `Nc1cc(C(=O)NC2Cc3ccccc3C2)cc(Nc2ccccc2O)n1` [Example 47, 2-Amino-N-(2,3-dihydro-1H-inden-2-yl)-6-((2-hydroxyphenyl)amino)isonicotinamide], the “Range: increase in enzyme activity in comparison with non-treated cells (Enzyme activity assay for compounds of Examples 33-141)” value is reported as “C (Increase in comparison with non-treated of 1.2-1.7 fold is shown as C)”.
In the case of `COc1ccccc1Nc1nc(N)c2c(n1)CN(Cc1ccccc1)CC2` [Example 28, 7-Benzyl-N2-(2-methoxyphenyl)-5,6,7,8-tetrahydropyrido[3,4-d]pyrimidine-2,4-diamine], the “Range: increase in enzyme activity in comparison with non-treated cells (Enzyme activity assay for exemplified compounds)” value is reported as “C (Increase in comparison with non-treated of 1.2-1.7 fold is shown as C)”.
`Cc1ccccc1Nc1cc(N)cc(C(=O)NC2Cc3ccccc3C2)n1` [Example 87, 4-Amino-N-(2,3-dihydro-1H-inden-2-yl)-6-(o-tolylamino)picolinamide] was tested, and the “Range: increase in enzyme activity in comparison with non-treated cells (Enzyme activity assay for compounds of Examples 33-141)” value was “B (Increase in comparison with non-treated of >1.7-2.0 fold is shown as B)”.
For `Nc1nc(Nc2ccccc2O)cc(C(=O)N2CCc3ccccc3C2)n1` [Example 85, (2-Amino-6-((2-hydroxyphenyl)amino)pyrimidin-4-yl)(3,4-dihydroisoquinolin-2(1H)-yl)methanone], the “Range: increase in enzyme activity in comparison with non-treated cells (Enzyme activity assay for compounds of Examples 33-141)” value was “C (Increase in comparison with non-treated of 1.2-1.7 fold is shown as C)”.
For `Nc1cc(Nc2ccccc2F)nc(C(=O)N2Cc3ccccc3C2)c1` [Example 103, (6-(2-Fluorophenylamino)-4-aminopyridin-2-yl)(isoindolin-2-yl)methanone], the “Range: increase in enzyme activity in comparison with non-treated cells (Enzyme activity assay for compounds of Examples 33-141)” value was “C (Increase in comparison with non-treated of 1.2-1.7 fold is shown as C)”.
For `Nc1cc(Nc2ccccc2O)cc(C(=O)N2CCN(c3ccccc3)CC2)n1` [Example 61, (6-Amino-4-((2-hydroxyphenyl)amino)pyridin-2-yl)(4-phenylpiperazin-1-yl)methanone], the “Range: increase in enzyme activity in comparison with non-treated cells (Enzyme activity assay for compounds of Examples 33-141)” value was “C (Increase in comparison with non-treated of 1.2-1.7 fold is shown as C)”.
In the case of `Nc1cc(C(=O)N2Cc3ccccc3C2)nc(Nc2ccccc2O)n1` [Example 8, (6-Amino-2-((2-hydroxyphenyl)amino)pyrimidin-4-yl)(isoindolin-2-yl)methanone], the “Range: increase in enzyme activity in comparison with non-treated cells (Enzyme activity assay for exemplified compounds)” value is reported as “C (Increase in comparison with non-treated of 1.2-1.7 fold is shown as C)”.
For `COc1ccccc1Nc1cc(C(=O)N2CCN(c3ccccc3)CC2)nc(N)n1` [Example 34, (2-Amino-6-((2-methoxyphenyl)amino)pyrimidin-4-yl)(4-phenylpiperazin-1-yl)methanone], the “Range: increase in enzyme activity in comparison with non-treated cells (Enzyme activity assay for compounds of Examples 33-141)” value was “D”.
In the case of `COc1cccc(Nc2nc(N)cc(C(=O)N3CCN(c4ccccc4)CC3)n2)c1` [Example 2, (6-Amino-2-((3-methoxyphenyl)amino)pyrimidin-4-yl)(4-phenylpiperazin-1-yl)methanone], the “Range: increase in enzyme activity in comparison with non-treated cells (Enzyme activity assay for exemplified compounds)” value is reported as “C (Increase in comparison with non-treated of 1.2-1.7 fold is shown as C)”.
For `COc1ccccc1Nc1cc(N)nc(C(=O)NC2CCc3ccccc3C2)c1` (centres unmarked) [Example 52, 6-Amino-4-((2-methoxyphenyl)amino)-N-(1,2,3,4-tetrahydronaphthalen-2-yl)picolinamide], the “Range: increase in enzyme activity in comparison with non-treated cells (Enzyme activity assay for compounds of Examples 33-141)” value was “B (Increase in comparison with non-treated of >1.7-2.0 fold is shown as B)”.
For `Nc1nc(Nc2ccccc2O)cc(C(=O)NC2CCc3ccccc3C2)n1` (centres unmarked) [Example 84, 2-Amino-6-((2-hydroxyphenyl)amino)-N-(1,2,3,4-tetrahydronaphthalen-2-yl)pyrimidine-4-carboxamide], the “Range: increase in enzyme activity in comparison with non-treated cells (Enzyme activity assay for compounds of Examples 33-141)” value was “C (Increase in comparison with non-treated of 1.2-1.7 fold is shown as C)”.
In the case of `COc1ccccc1Nc1nc(N)nc2c1CCN(Cc1ccccc1)C2` [Example 24, 7-Benzyl-N4-(2-methoxyphenyl)-5,6,7,8-tetrahydropyrido[3,4-d]pyrimidine-2,4-diamine], the “Range: increase in enzyme activity in comparison with non-treated cells (Enzyme activity assay for exemplified compounds)” value is reported as “C (Increase in comparison with non-treated of 1.2-1.7 fold is shown as C)”.
`Cc1cccc(Nc2nc(N)cc(C(=O)N3Cc4ccccc4C3)n2)c1` [Example 40, (6-Amino-2-(m-tolylamino)pyrimidin-4-yl)(isoindolin-2-yl)methanone] was tested, and the “Range: increase in enzyme activity in comparison with non-treated cells (Enzyme activity assay for compounds of Examples 33-141)” value was “C (Increase in comparison with non-treated of 1.2-1.7 fold is shown as C)”.
For `Nc1cc(Nc2ccccc2F)nc(C(=O)Nc2ccc3c(c2)OCCO3)c1` [Example 111, 4-Amino-N-(2,3-dihydrobenzo[b][1,4]dioxin-6-yl)-6-((2-fluorophenyl)amino)picolinamide], the “Range: increase in enzyme activity in comparison with non-treated cells (Enzyme activity assay for compounds of Examples 33-141)” value was “A (Increase in comparison with non-treated of >2.0 fold is shown as A)”.
For `COc1ccccc1Nc1cc(N)nc(C(=O)N2Cc3ccccc3C2)c1` [Example 59, (6-Amino-4-((2-methoxyphenyl)amino)pyridin-2-yl)(isoindolin-2-yl)methanone], the “Range: increase in enzyme activity in comparison with non-treated cells (Enzyme activity assay for compounds of Examples 33-141)” value was “C (Increase in comparison with non-treated of 1.2-1.7 fold is shown as C)”.
In the case of `COc1cccc(Nc2nc(N)cc(C(=O)N(C)c3ccccc3)n2)c1` [Example 7, 6-Amino-2-((3-methoxyphenyl)amino)-N-methyl-N-phenylpyrimidine-4-carboxamide], the “Range: increase in enzyme activity in comparison with non-treated cells (Enzyme activity assay for exemplified compounds)” value is reported as “D”.
In the case of `Nc1cc(Nc2ccccc2O)cc(C(=O)N2CCc3ccccc32)n1` [Example 64, (6-Amino-4-((2-hydroxyphenyl)amino)pyridin-2-yl)(indolin-1-yl)methanone], the “Range: increase in enzyme activity in comparison with non-treated cells (Enzyme activity assay for compounds of Examples 33-141)” value is reported as “C (Increase in comparison with non-treated of 1.2-1.7 fold is shown as C)”.
